# Reference: PubChem BioAssay AID1259411 (Chemical Carcinogenesis Research Information System (CCRIS), 2018)
# Active and inactive are the calls of the source. How the calls were made is not given here.
# System: rodent carcinogenicity bioassays, tumor incidence
# Test: CCRIS carcinogenicity studies
# Outline: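 NCI-built, expert-reviewed records of carcinogenicity and related test outcomes (mutagenicity, tumor promotion/inhibition) compiled from published and report sources, historical span 1985-2011, not updated.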
smiles,measurement,setting,value
ClCC(Cl)CCl,carcinogen call,"Species: GUPPIE, Strain/Sex: FEMALE, Route: AQUARIUM WATER, Dose: 0, 4.5, 9, 18 MG/L FOR 9 MO THEN IN CLEAN WATER FOR 7 MO (STUDY DURATION: 16 MO), Dose: 0, 4.5, 9, 18 MG/L FOR 9 MO THEN IN CLEAN WATER FOR 7 MO (STUDY DURATION: 16 MO), Tumor Site: Type of Lesion: LIVER: CHOLANGIOCARCINOMA, HEPATOCELLULAR ADENOMA OR CARCINOMA",active; positive
same,carcinogen call,"Species: GUPPIE, Strain/Sex: FEMALE, Route: AQUARIUM WATER, Dose: 0, 4.5, 9, 18 MG/L FOR 16 MO (STUDY DURATION: 16 MO), Dose: 0, 4.5, 9, 18 MG/L FOR 16 MO (STUDY DURATION: 16 MO), Tumor Site: Type of Lesion: LIVER: HEPATOCELLULAR ADENOMA OR CARCINOMA, CHOLANGIOCARCINOMA",active; positive
same,carcinogen call,"Species: GUPPIE, Strain/Sex: MALE, Route: AQUARIUM WATER, Dose: 0, 4.5, 9, 18 MG/L FOR 9 MO THEN IN CLEAN WATER FOR 7 MO (STUDY DURATION: 16 MO), Dose: 0, 4.5, 9, 18 MG/L FOR 9 MO THEN IN CLEAN WATER FOR 7 MO (STUDY DURATION: 16 MO), Tumor Site: Type of Lesion: LIVER: HEPATOCELLULAR ADENOMA OR CARCINOMA",active; positive
same,carcinogen call,"Species: GUPPIE, Strain/Sex: MALE, Route: AQUARIUM WATER, Dose: 0, 4.5, 9, 18 MG/L FOR 16 MO (STUDY DURATION: 16 MO), Dose: 0, 4.5, 9, 18 MG/L FOR 16 MO (STUDY DURATION: 16 MO), Tumor Site: Type of Lesion: LIVER: HEPATOCELLULAR ADENOMA OR CARCINOMA",active; positive
same,carcinogen call,"Species: MEDAKA, Strain/Sex: FEMALE, Route: AQUARIUM WATER, Dose: 0, 4.5, 9, 18 MG/L FOR 9 MO THEN IN CLEAN WATER FOR 4 MO (STUDY DURATION: 13 MO), Dose: 0, 4.5, 9, 18 MG/L FOR 9 MO THEN IN CLEAN WATER FOR 4 MO (STUDY DURATION: 13 MO), Tumor Site: Type of Lesion: LIVER: CHOLANGIOCARCINOMA, HEPATOCELLULAR ADENOMA OR CARCINOMA, GALL BLADDER: ADENOMA",active; positive
same,carcinogen call,"Species: MEDAKA, Strain/Sex: FEMALE, Route: AQUARIUM WATER, Dose: 0, 4.5, 9, 18 MG/L FOR 13 MO (STUDY DURATION: 13 MO), Dose: 0, 4.5, 9, 18 MG/L FOR 13 MO (STUDY DURATION: 13 MO), Tumor Site: Type of Lesion: LIVER: CHOLANGIOCARCINOMA, HEPATOCELLULAR ADENOMA OR CARCINOMA, HEPATOCHOLANGIOCARCINOMA, GALL BLADDER: ADENOMA",active; positive
same,carcinogen call,"Species: MEDAKA, Strain/Sex: MALE, Route: AQUARIUM WATER, Dose: 0, 4.5, 9, 18 MG/L FOR 9 MO THEN IN CLEAN WATER FOR 4 MO (STUDY DURATION: 13 MO), Dose: 0, 4.5, 9, 18 MG/L FOR 9 MO THEN IN CLEAN WATER FOR 4 MO (STUDY DURATION: 13 MO), Tumor Site: Type of Lesion: LIVER: CHOLANGIOCARCINOMA, HEPATOCELLULAR ADENOMA OR CARCINOMA, GALL BLADDER: ADENOMA",active; positive
same,carcinogen call,"Species: MEDAKA, Strain/Sex: MALE, Route: AQUARIUM WATER, Dose: 0, 4.5, 9, 18 MG/L FOR 13 MO (STUDY DURATION: 13 MO), Dose: 0, 4.5, 9, 18 MG/L FOR 13 MO (STUDY DURATION: 13 MO), Tumor Site: Type of Lesion: LIVER: CHOLANGIOCARCINOMA, HEPATOCELLULAR ADENOMA OR CARCINOMA, GALL BLADDER: ADENOMA, HEPATOCHOLANGIOCARCINOMA",active; positive
same,carcinogen call,"Species: MOUSE, Strain/Sex: B6C3F1/FEMALE, Route: GAVAGE, Dose: 0, 6, 20, 60 MG/KG BW IN CORN OIL 5 D/WK FOR 104 WK (STUDY DURATION: 2 YR), Dose: 0, 6, 20, 60 MG/KG BW IN CORN OIL 5 D/WK FOR 104 WK (STUDY DURATION: 2 YR), Tumor Site: Type of Lesion: HARDERIAN GLAND: ADENOMA, LIVER: HEPATOCELLULAR ADENOMA, PHARYNX: SQUAMOUS CELL CARCINOMA, FORESTOMACH: SQUAMOUS CELL PA, Tumor Site: Type of Lesion: HARDERIAN GLAND: ADENOMA, LIVER: HEPATOCELLULAR ADENOMA, PHARYNX: SQUAMOUS CELL CARCINOMA, FORESTOMACH: SQUAMOUS CELL PA",active; positive
same,carcinogen call,"Species: MOUSE, Strain/Sex: B6C3F1/MALE, Route: GAVAGE, Dose: 0, 6, 20, 60 MG/KG BW IN CORN OIL 5 D/WK FOR 104 WK (STUDY DURATION: 2 YR), Dose: 0, 6, 20, 60 MG/KG BW IN CORN OIL 5 D/WK FOR 104 WK (STUDY DURATION: 2 YR), Tumor Site: Type of Lesion: HARDERIAN GLAND: ADENOMA, LIVER: HEPATOCELLULAR ADENOMA, FORESTOMACH: SQUAMOUS CELL PAPILLOMA, SQUAMOUS CELL CARCINOMA, Tumor Site: Type of Lesion: HARDERIAN GLAND: ADENOMA, LIVER: HEPATOCELLULAR ADENOMA, FORESTOMACH: SQUAMOUS CELL PAPILLOMA, SQUAMOUS CELL CARCINOMA",active; positive
same,carcinogen call,"Species: RAT, Strain/Sex: F344/FEMALE, Route: GAVAGE, Dose: 0, 3, 10, 30 MG/KG BW IN CORN OIL 5 D/WK FOR 104 WK (STUDY DURATION: 2 YR), Dose: 0, 3, 10, 30 MG/KG BW IN CORN OIL 5 D/WK FOR 104 WK (STUDY DURATION: 2 YR), Tumor Site: Type of Lesion: CLITORAL GLAND: ADENOMA, CARCINOMA, MAMMARY GLAND: CARCINOMA, PHARYNX: SQUAMOUS CELL CARCINOMA, FORESTOMACH: SQUAMOUS CE, Tumor Site: Type of Lesion: CLITORAL GLAND: ADENOMA, CARCINOMA, MAMMARY GLAND: CARCINOMA, PHARYNX: SQUAMOUS CELL CARCINOMA, FORESTOMACH: SQUAMOUS CE",active; positive
same,carcinogen call,"Species: RAT, Strain/Sex: F344/MALE, Route: GAVAGE, Dose: 0, 3, 10, 30 MG/KG BW IN CORN OIL 5 D/WK FOR 104 WK (STUDY DURATION: 2 YR), Dose: 0, 3, 10, 30 MG/KG BW IN CORN OIL 5 D/WK FOR 104 WK (STUDY DURATION: 2 YR), Tumor Site: Type of Lesion: KIDNEY (RENAL TUBULE): ADENOMA, PANCREAS: ADENOMA, PHARYNX: SQUAMOUS CELL CARCINOMA, PREPUTIAL GLAND: ADENOMA, CARCINOMA, Tumor Site: Type of Lesion: KIDNEY (RENAL TUBULE): ADENOMA, PANCREAS: ADENOMA, PHARYNX: SQUAMOUS CELL CARCINOMA, PREPUTIAL GLAND: ADENOMA, CARCINOMA",active; positive
CCC1c2ccc(O)cc2C(C)C1c1ccc(O)cc1 (configuration not stated),carcinogen call,"Species: HAMSTER, Strain/Sex: SYRIAN/MALE, Route: SUBCUTANEOUS IMPLANT, Dose: 0, 20 MG IN PELLETS IMPLANTED EVERY 2.5 MO FOR 9 MO (STUDY DURATION: 9 MO)",inactive; negative
CNNC,carcinogen call,"Species: HAMSTER, Route: INTRAMUSCULAR, Tumor Site: Type of Lesion: STOMACH, LIVER, INTESTINES, Tumor Site: Type of Lesion: STOMACH, LIVER, INTESTINES",active; positive
same,carcinogen call,"Species: HAMSTER, Route: ORAL, Tumor Site: Type of Lesion: BLOOD VESSELS, INTESTINES, LIVER, Tumor Site: Type of Lesion: BLOOD VESSELS, INTESTINES, LIVER",active; positive
same,carcinogen call,"Species: MONKEY, Strain/Sex: CEBUS APELLA/MALE, Route: SUBCUTANEOUS, Dose: 0, 25 MG/KG BW 1/WK FOR 16 WK (STUDY DURATION: 20 MO)",inactive; negative
same,carcinogen call,"Species: MOUSE, Route: ORAL, Tumor Site: Type of Lesion: LUNG, BLOOD VESSELS",active; positive
same,carcinogen call,"Species: MOUSE, Route: SUBCUTANEOUS, Tumor Site: Type of Lesion: COLON, INTESTINES",active; positive
same,carcinogen call,"Species: RAT, Route: ORAL, Tumor Site: Type of Lesion: INTESTINES, LIVER",active; positive
same,carcinogen call,"Species: RAT, Route: SUBCUTANEOUS, Tumor Site: Type of Lesion: COLON, INTESTINES, LIVER, Tumor Site: Type of Lesion: COLON, INTESTINES, LIVER",active; positive
same,carcinogen call,"Species: RAT, Strain/Sex: WISTAR/FEMALE, Route: SUBCUTANEOUS, Dose: 0, 200 MG/KG BW ONCE (STUDY DURATION: 1 YR), Tumor Site: Type of Lesion: KIDNEY: TUMOR",active; positive
same,carcinogen call,"Species: RAT, Strain/Sex: WISTAR/MALE, Route: SUBCUTANEOUS, Dose: 30 MG/KG IN NACL-EDTA 1/WK FOR 10 OR 15 WK, Tumor Site: Type of Lesion: INTESTINES: CARCINOMA (INVASIVE, INCLUDING MUCIN AND NONMUCIN PRODUCING), CARCINOMA (NONINVASIVE)",active; positive
